Literature values, collected in patent US20230157303A1, “Plant-Based Pesticide” (priority 2022, published 2023).

What was measured:
Settings in all cases: in vivo
humans and other mammals = test system: humans and other mammals
aquatic wildlife = test system: aquatic wildlife
honeybees = test system: honeybees

Structure (SMILES) | toxicity to humans and other mammals (humans and other mammals) | toxicity to aquatic wildlife (aquatic wildlife) | toxicity to honeybees (honeybees)
CC1(C)C(C=C(Cl)Cl)C1C(=O)OC(C#N)c1cccc(Oc2ccccc2)c1 (centres unmarked) [Cypermethrin] | acutely toxic | highly toxic | very highly toxic
CCOP(=S)(OCC)Oc1cc(C)nc(C(C)C)n1 [diazinon, Diazinon] | – | – | toxic
CCOC(=O)CC(SP(=S)(OC)OC)C(=O)OCC (centres unmarked) [malathion, Malathion] | – | – | toxic
